Data from patent US11116726B2, “Echinomycin formulation, method of making and method of use thereof” (CHILDREN'S RESEARCH INSTITUTE, CHILDREN'S NATIONAL MEDICAL …, priority 2015, dated 2021).

Columns and labels:
[1] = Liposomal echinomycin toxicity in mice (body weight, survival); format: in vivo, NSG mice; conditions: 1 mg/kg single i.v.
Method: FIG. 4. Comparison of toxicity and efficacy for liposomal vs. free echinomycin. (Panel A) Body weight change in female NSG mice receiving a therapeutic cycle of liposomal echinomycin, PBS echinomycin (20% DMSO in PBS), or equivalent dosage of empty liposomal vehicle. Mice were treated with 250 μg/kg of liposomal (n=7) or free (n=7) echinomycin, or vehicle equivalent (n=4), by i.v. once every other day for a total of 3 doses). (Panel B) Survival of NSG mice administered single i.v. injection of 1 mg/kg liposomal or free echinomycin, or equivalent dosage of empty liposomal vehicle.
To test the toxicity of liposomal echinomycin in mice, a therapeutic cycle of echinomycin was administered at a dose of 250 μg/kg, (liposomal-formulated, non-liposomal-formulated, or equivalent dosage of empty liposomal vehicle) by i.v. injection, every other day for a total of 3 doses. Body weights of the mice were monitored throughout this period.

[2] = Intravenous tolerability / LD50 in mice; conditions: mouse, in vivo
[3] = Plasma pharmacokinetics by mass spectrometry after single i.v. injection; format: in vivo, mice; conditions: 0.1 mg/kg single i.v.
Method: FIG. 5. Comparison of pharmacokinetics for liposomal vs. free echinomycin. Serum plasma levels of echinomycin detected by MS following single dose i.v. administration of 0.1 mg/kg liposomal echinomycin or free echinomycin
PEG shields liposomes from rapid uptake by the RES and provides steric stabilization to the liposome particles. To measure the prolonged circulation of liposomal echinomycin in the bloodstream compared to free echinomycin, the pharmacokinetics of both formulations were evaluated by detecting echinomycin levels in the plasma by mass spectrometry following single i.v. injections of 0.1 mg/kg of liposomal echinomycin or free echinomycin in mice (FIG. 5).

[4] = Echinomycin concentration in SUM 159 breast tumor tissue after single i.v. injection; format: in vivo, NSG mice; conditions: 0.1 mg/kg single i.v., SUM 159 tumor
Method: FIG. 6. Accumulation of Echinomycin in tumor. Concentration of echinomycin in breast tumor SUM 159 following single dose i.v. injection (0.1 mg/kg) of liposomal and conventionally formulated echinomycin. n=3/time-point.
In contrast, administration of liposomal echinomycin (Lipo-EM) at the same dose of 0.1 mg/kg achieved a tissue concentration >5 ng/g, which was prolonged for more than 10 hrs following administration (FIG. 6). More importantly, peak drug levels in the liposomal echinomycin-treated group were approximately 6-fold higher than those treated with free echinomycin.

[5] = tested on: human ETP-ALL-1 cells; assay: ETP-ALL xenograft model, human CD45+ cells in blood by FACS; format: in vivo, NSG mice; conditions: echinomycin in PBS 0.1 mg/kg x15 doses; Lipo-EM 0.35 mg/kg x10 doses; blood days 34, 50, 65
Method: FIG. 8. Liposomal echinomycin eliminates human ETP-ALL cells in a xenograft mouse model. (Panel A) Dosing regimen of liposomal echinomycin treatment for ETP-ALL humanized mice for data in panel B. Day 0 indicates day of transplantation with human ETP-ALL-1 cells. Green arrows represent one individual liposomal echinomycin injection (0.35 mg/kg/injection via i.v.). Red arrows indicate blood tests. (Panel B) NSG mice with 1.3 Gys irradiated were given i.v. injection of 1×10^6 human ETP-ALL-1 cells. Human CD45^+ cells in PBMC of recipients were detected by FACS analysis at day 34 after transplantation. The percentage of human CD45^+ in PBMC of recipient mice before treatment (Day 34) and after treatment (Day 42, 48, 56, and 64) of mice (vehicle and liposomal echinomycin treatment) was analyzed by FACS analysis. […] The percentage of human CD45^+ in PBMC of recipients after echinomycin treatment (Day 34, 50, and 65) of mice was analyzed by FACS analysis.
To test whether administration of liposomal echinomycin (Lipo-EM) could eliminate human ETP-ALL cells in vivo, Lipo-EM was administered to xenografted ETP-ALL NSG mice according to the dosing schedule outlined in FIG. 8, panel A. Briefly, 1×10^6 ETP ALL-1 cells were transplanted via i.v. injection into 1.3 Gys irradiated NSG mice. […] The percentage of human ETP ALL-1 cells was monitored after treatment. […]

[6] = tested on: SUM159 cells; assay: MTT cell viability assay, SUM 159; format: cell-based; conditions: Homo sapiens, 48 hrs, read-out: IC50 (number of live cells)
Method: (§1) FIG. 9. Echinomycin reduced the number of live breast cancer cells in vitro. Breast cancer cells with high (SUM 159) or low (MCF7) levels of HIF-1α were treated with various concentrations of echinomycin in vitro. The correlation between echinomycin concentration and relative proportions of surviving cells after co-culturing with echinomycin is shown. SUM 159 cells with high HIF-1α are more sensitive to echinomycin than MCF7, which express less HIF-1α.
(§2) To better understand the importance of high HIF-1α expression in breast cancer cells, the ability of echinomycin to reduce survival of breast cancer cells was tested in two breast cancer cell lines, MCF7 and SUM 159. More specifically, MCF7 and SUM 159 were treated with different concentrations of echinomycin for 48 hrs, followed by MTT assays to measure cell viability thereafter.

[7] = tested on: MCF7 cells; assay: MTT cell viability assay, MCF7; format: cell-based, human; conditions: 48 hrs, compared with SUM159
Method: as §1, §2

[8] = tested on: SUM159 breast cancer cells; assay: SUM159 breast cancer xenograft efficacy; format: in vivo, NSG mice; conditions: 0.1 mg/kg i.v. once every 3 days, 6 doses
Method: FIG. 11. Therapeutic effect of liposomal echinomycin on breast cancer in vivo. (Panel A) Female NSG mice were xenografted with human SUM159 breast cancer cells and treated with free echinomycin or vehicle (n=10 per group). Mice received 0.1 mg/kg of free echinomycin or vehicle via i.v. injection once every 3 days starting on day 28 for a total of 6 doses. Growth kinetics of SUM159 are shown. (Panel B) Female NSG mice were xenografted with SUM159 breast cancer cells and treated with liposomal echinomycin or vehicle (n=5 per group). The growth kinetics of SUM159 in recipient mice treated with vehicle and liposomal echinomycin are shown. Mice received 0.35 mg/kg of liposomal echinomycin or vehicle by i.v. injection on days 9, 11, 13, 25 and 27. Average tumor volume was recorded throughout the experiment. Error bars represent ±SEM. Individual treatments and dosage are denoted by asterisks. (Panel C) Mice were euthanized, and tumors were dissected and photographed. […] Weight is expressed as average weight ±s.d., P value was calculated by t test.
To test the therapeutic efficacy of free echinomycin (in PBS), Lipo-EM, and vehicle in breast cancer cells in vivo, SUM159 cells were xenografted in the mammary fat pad of NOD-SCID mice. […] In addition, Growth kinetics of the transplanted tumors were measured by volume (FIG. 11, panel B) and by weight (FIG. 11, panel C and panel D). […]

[9] = cited from earlier work

For `CS[C@H]1SC[C@H]2C(=O)N(C)[C@@H](C(C)C)C(=O)OC[C@@H](NC(=O)c3cnc4ccccc4n3)C(=O)N[C@@H](C)C(=O)N(C)[C@@H]1C(=O)N(C)[C@@H](C(C)C)C(=O)OC[C@@H](NC(=O)c1cnc3ccccc3n1)C(=O)N[C@@H](C)C(=O)N2C` [free echinomycin, Echinomycin], the “survival (in words)” value [1] was “died within a week”, the LD50 [2] was 0.629 mg/kg and the “time point at which plasma concentration >1 ng/ml is achieved (only)” value [3] was 15 min. The “time point at which tumor concentration >5 ng/g is achieved (only)” value [4] was 2 h, the “growth of ETP-ALL-1 cells in recipients (comparison study)” value [5] was “did inhibit the growth rate of ETP-ALL-1 cells” and the IC50 [6] was 1 nM. The sensitivity to echinomycin [7] was “less sensitive”, the “tumor size vs vehicle control” value [8] was “no significant differences in tumor size” and the “solubility in ethanol, alkalis, ketones, acetic acid and chloroform” value [9] was “soluble”. For the same molecule, the solubility in water ([9]; water) was “insoluble”.
